# Results taken from the supplement of paper PMC10307832.
# Legend:
# Experiment in all cases: relative viability (nuclei count vs DMSO), 5 days (fraction); higher = more cells survive
# [1] = compound: CN[C@@H]1C[C@H]2O[C@@](C)([C@@H]1OC)n1c3ccccc3c3c4c(c5c6ccccc6n2c5c31)C(=O)NC4 [Staurosporine] + Cc1cc(Nc2cc(N3CCN(C)CC3)nc(Sc3ccc(NC(=O)C4CC4)cc3)n2)n[nH]1 [Tozasertib] (partner 0.1 µM)
# How it was run: (§1)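 After 5 days of treatment, lung cancer cells in 1536-well plates were fixed and stained in a single step (final 0.05% Triton X-100, 1% formaldehyde, 1 ug/ml Hoechst) and their nuclei counted on 4× images. Treatment had been applied by pin tool the day after seeding as one drug alone or as a fixed anchor-drug dose with five library-drug doses (not always all listed) in √10 steps. Relative viability is the nuclei count of treated wells divided by that of vehicle wells, and values are medians of duplicate plates.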
# Sulindac + Pictilisib = compound: CC1=C(CC(=O)O)c2cc(F)ccc2/C1=C\c1ccc([S+](C)[O-])cc1 [Sulindac] + CS(=O)(=O)N1CCN(Cc2cc3nc(-c4cccc5[nH]ncc45)nc(N4CCOCC4)c3s2)CC1 [Pictilisib] (partner 1 µM)
# How it was run: as §1
# [2] = compound: CN[C@@H]1C[C@H]2O[C@@](C)([C@@H]1OC)n1c3ccccc3c3c4c(c5c6ccccc6n2c5c31)C(=O)NC4 [Staurosporine] + CCNC(=O)c1noc(-c2cc(C(C)C)c(O)cc2O)c1-c1ccc(CN2CCOCC2)cc1 [Luminespib] (partner 0.01 µM)
# How it was run: as §1
# [3] = compound: CN[C@@H]1C[C@H]2O[C@@](C)([C@@H]1OC)n1c3ccccc3c3c4c(c5c6ccccc6n2c5c31)C(=O)NC4 [Staurosporine] + Cc1nc(Nc2ncc(C(=O)Nc3c(C)cccc3Cl)s2)cc(N2CCN(CCO)CC2)n1 [Dasatinib] (partner 0.075 µM)
# How it was run: as §1
cell line,measurement,setting,value
UMC-11,relative viability,[1]; first compound 0.005 µM,0.189
same,relative viability,[1]; first compound 0.01581 µM,0.161
same,relative viability,[1]; first compound 0.05 µM,0.145
same,relative viability,[1]; first compound 0.1581 µM,0.127
same,relative viability,[1]; first compound 0.5 µM,0.122
same,relative viability,Sulindac + Pictilisib; first compound 0.08 µM,1.18
same,relative viability,Sulindac + Pictilisib; first compound 0.253 µM,0.816
same,relative viability,Sulindac + Pictilisib; first compound 0.8 µM,0.704
same,relative viability,Sulindac + Pictilisib; first compound 2.53 µM,0.667
same,relative viability,Sulindac + Pictilisib; first compound 8 µM,0.793
same,relative viability,[2]; first compound 0.005 µM,0.894
same,relative viability,[2]; first compound 0.01581 µM,0.487
same,relative viability,[2]; first compound 0.05 µM,0.223
same,relative viability,[2]; first compound 0.1581 µM,0.135
same,relative viability,[2]; first compound 0.5 µM,0.0992
same,relative viability,[3]; first compound 0.005 µM,0.508
same,relative viability,[3]; first compound 0.05 µM,0.149
same,relative viability,[3]; first compound 0.1581 µM,0.114
same,relative viability,[3]; first compound 0.5 µM,0.0934
